In assay [1] the target is T1, hM5 mAcChR (Homo sapiens, UniProt P08912).
T1 sequence (P08912 1-532): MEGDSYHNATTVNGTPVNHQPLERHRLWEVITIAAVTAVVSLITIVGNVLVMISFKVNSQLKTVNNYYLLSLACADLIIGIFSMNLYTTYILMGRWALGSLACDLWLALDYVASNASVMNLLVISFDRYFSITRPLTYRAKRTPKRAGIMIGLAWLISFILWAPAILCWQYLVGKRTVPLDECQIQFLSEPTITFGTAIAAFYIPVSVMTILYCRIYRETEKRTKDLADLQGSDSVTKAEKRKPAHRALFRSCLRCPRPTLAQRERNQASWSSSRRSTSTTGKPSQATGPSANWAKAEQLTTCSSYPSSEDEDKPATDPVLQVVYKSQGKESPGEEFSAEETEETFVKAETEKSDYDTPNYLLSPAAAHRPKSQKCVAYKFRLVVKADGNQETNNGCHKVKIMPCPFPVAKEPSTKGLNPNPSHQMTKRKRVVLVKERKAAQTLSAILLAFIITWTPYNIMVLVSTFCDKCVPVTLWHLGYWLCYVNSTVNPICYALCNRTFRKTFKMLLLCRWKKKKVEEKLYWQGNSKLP
The assay can be described thus: [3H]NMS binding to membranes from CHO-K1 cells expressing hM5.

Assay [2] has as its target T2, hM1 mAcChR (Homo sapiens, UniProt P11229).
T2 sequence (P11229 1-460): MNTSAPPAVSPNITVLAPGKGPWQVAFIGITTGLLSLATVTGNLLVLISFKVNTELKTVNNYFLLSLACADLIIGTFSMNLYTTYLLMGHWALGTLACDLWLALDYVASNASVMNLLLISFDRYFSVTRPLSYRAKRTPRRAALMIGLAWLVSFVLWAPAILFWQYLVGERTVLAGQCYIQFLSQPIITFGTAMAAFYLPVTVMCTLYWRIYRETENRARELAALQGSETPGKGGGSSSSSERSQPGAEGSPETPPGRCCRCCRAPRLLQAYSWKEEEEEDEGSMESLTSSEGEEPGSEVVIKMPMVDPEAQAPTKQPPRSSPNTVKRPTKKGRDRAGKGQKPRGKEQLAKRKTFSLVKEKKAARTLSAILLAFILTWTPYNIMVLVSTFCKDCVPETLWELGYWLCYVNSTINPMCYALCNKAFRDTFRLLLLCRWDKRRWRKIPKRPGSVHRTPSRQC
The assay can be described thus: [3H]N-methylscopolamine. It is filed as binding.

Turning to `CCN1CCC(c2ccccc2)=C(C(=O)OCCc2cccc(OC)c2)C1` [Compound 18], in assay [1], the “increase in binding affinity at M5 relative to compound 8” value amounted to 3 fold and the “increase in binding affinity at M5 relative to compound 17” value was 8 fold.

As for `CCN1CCC(c2ccccc2)=C(C(=O)OCCc2ccc(S(C)(=O)=O)cc2)C1` [Compound 27], in assay [2], the “binding affinity at M1 receptor (in words)” value is reported as “little affinity”. Besides, the “binding affinity at M5 receptor (in words)” value in assay [1] was “little affinity”.

For the molecule `CCN1CCC(c2ccccc2)=C(C(=O)OCCc2ccc3c(c2)CCO3)C1` [Compound 28], in assay [1], the M1/M5 was 1,390 (6.0), the M2/M5 is >100,000 (>435), the M3/M5 was 31,100 (135) and the M4/M5 is given as 10,500 (46).

Take `COc1ccc(CCOC(=O)C2=C(c3ccccc3)CCN(Cc3ccc(OC)cc3)C2)cc1` [Compound 40]: the “binding affinity at M1 receptor (in words)” value in assay [2] was “eliminated affinity”. Further, the “binding affinity at M5 receptor (in words)” value in assay [1] is reported as “eliminated affinity”.

On to `COc1ccc(CCOC(=O)C2=C(c3ccccc3)CCN(C)C2)cc1` [Compound 42], for which the “increase in binding affinity at M1 relative to compound 8” value in assay [2] turned out to be 8 fold. The “increase in binding affinity at M5 relative to compound 8” value in assay [1] is reported as 14 fold.

In the case of `CCCN1CCC(c2ccccc2)=C(C(=O)OCCc2ccc(OC)cc2)C1` [Compound 43], the “binding affinity at M1 receptor (in words)” value in assay [2] is “eliminated affinity”. Further, in assay [1], the “binding affinity at M5 receptor (in words)” value was “eliminated affinity”.

Take `CCCCN1CCC(c2ccccc2)=C(C(=O)OCCc2ccc(OC)cc2)C1` [Compound 44]: in assay [2], the “binding affinity at M1 receptor (in words)” value is recorded as “eliminated affinity”. In assay [1], the “binding affinity at M5 receptor (in words)” value is listed as “eliminated affinity”.

Regarding `CN1CCC(c2ccccc2)=C(C(=O)OCCc2ccc3c(c2)CCO3)C1` [Compound 45], in assay [1], the M1/M5 was 290 (4.8), the M2/M5 is on record as 1,170 (20), the M3/M5 is reported as 2,840 (47) and the M4/M5 is 1,890 (32).

Take `CN1CCC(c2ccccc2)=C(C(=O)OCCc2cccc3ccccc23)C1` [Compound 57]: in assay [1], the M1/M5 is 24,400 (4.8), the M2/M5 was >100,000 (>20), the M3/M5 is >100,000 (>20) and the M4/M5 is listed as >100,000 (>20).

`CN1CCC(c2ccccc2F)=C(C(=O)OCCc2ccc3c(c2)CCO3)C1` [Compound 63]: in assay [1], the M1/M5 was 5,270 (7.1), the M2/M5 is 540 (0.7), the M3/M5 is 4,890 (6.6) and the M4/M5 was 5,740 (7.8).

As for `COc1ccc(CCOC(=O)C2=C(c3cccc(F)c3)CCN(C)C2)cc1OC` [Compound 66], in assay [1], the M2/M5 is >100,000 (>30), the M3/M5 is listed as >100,000 (>30) and the M4/M5 was >100,000 (>30).

As to `CN1CC=C(c2ccccc2C(=O)OCCc2ccc3c(c2)CCO3)CC1` [Compound 89], in assay [2], the “binding affinity at M1 receptor (in words)” value is “complete loss of binding affinity”. In assay [1], the “binding affinity at M5 receptor (in words)” value is given as “complete loss of binding affinity”.

The values are drawn from publication PMC3676450 (Journal of medicinal chemistry, 2013).
